Test results taken from the supplement of paper PMC11061612.

Legend:
Prexasertib = compound: COc1cccc(OCCCN)c1-c1cc(Nc2cnc(C#N)cn2)n[nH]1 [Prexasertib]; settings: max 1 µM
In short: (§1)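 Cancer cell lines were dosed for 72 hours (final DMSO typically 0.2%) after 24 hours at 37°C and 5% CO2 in 1536-well plates containing 7.5 μl DMEM/F12 or RPMI with 10% FBS. Viability came from CellTiter-Glo 2.0 luminescence, scaled between blank-well and DMSO-well means, and dose responses were fitted to a two-parameter logistic curve with a non-linear mixed effects model. The single-agent IC50 was obtained from this fit.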

AZD1775 = compound: C=CCn1c(=O)c2cnc(Nc3ccc(N4CCN(C)CC4)cc3)nc2n1-c1cccc(C(C)(C)O)n1 [AZD1775]
In short: as §1

AZD4320 = compound: CN(CC[C@H](CSC1=CC=CC=C1)NC2=C(C=C(C=C2)S(=O)(=O)NC(=O)C3=CC=C(C=C3)N4CCC(CC4)[C@H](C5=CC=CC=C5C6=CC=C(C=C6)Cl)O)S(=O)(=O)C(F)(F)F)CCO [AZD4320]; settings: max 1 µM
In short: as §1

SN-38 = compound: CCc1c2c(nc3ccc(O)cc13)-c1cc3c(c(=O)n1C2)COC(=O)[C@]3(O)CC [SN-38]; settings: max 0.3 µM
In short: as §1

Taselisib = compound: Cc1nc(-c2cn3c(n2)-c2ccc(-c4cnn(C(C)(C)C(N)=O)c4)cc2OCC3)n(C(C)C)n1 [Taselisib]; settings: max 10 µM
In short: as §1

Trametinib = compound: CC(=O)Nc1cccc(-n2c(=O)n(C3CC3)c(=O)c3c(Nc4ccc(I)cc4F)n(C)c(=O)c(C)c32)c1 [Trametinib]; settings: max 1 µM
In short: as §1

Doxorubicin = compound: COc1cccc2c1C(=O)c1c(O)c3c(c(O)c1C2=O)C[C@@](O)(C(=O)CO)C[C@@H]3O[C@H]1C[C@H](N)[C@H](O)[C@H](C)O1 [Doxorubicin]; settings: max 1 µM
In short: as §1

Alisertib = compound: COc1cc(Nc2ncc3c(n2)-c2ccc(Cl)cc2C(c2c(F)cccc2OC)=NC3)ccc1C(=O)O [Alisertib]; settings: max 10 µM
In short: as §1

AZD1390 = compound: CC(C)n1c(=O)n(C)c2cnc3cc(F)c(-c4ccc(OCCCN5CCCCC5)nc4)cc3c21 [AZD1390]; settings: max 0.3 µM
In short: as §1

Savolitinib = compound: C[C@@H](c1ccc2nccn2c1)n1nnc2ncc(-c3cnn(C)c3)nc21 [Savolitinib]; settings: max 1 µM
In short: as §1

AZD5991 = compound: Cc1c2c(nn1C)CSCc1cc(n(C)n1)CSc1cc(c3ccccc3c1)OCCCc1c(C(=O)O)n(C)c3c-2c(Cl)ccc13 [AZD5991]; settings: max 1 µM
In short: as §1

AZD5153 = compound: COc1nnc2ccc(N3CCC(c4ccc(OCCN5CCN(C)C(=O)[C@H]5C)cc4)CC3)nn12 [AZD5153]; settings: max 1 µM
In short: as §1

Dasatinib = compound: CC1=C(C(=CC=C1)Cl)NC(=O)C2=CN=C(S2)NC3=CC(=NC(=N3)C)N4CCN(CC4)CCO [Dasatinib]; settings: max 2 µM
In short: as §1

Olaparib = compound: O=C(c1cc(Cc2n[nH]c(=O)c3ccccc23)ccc1F)N1CCN(C(=O)C2CC2)CC1 [Olaparib]; settings: max 10 µM
In short: as §1

AZD6738 = compound: C[C@@H]1COCCN1C2=NC(=NC(=C2)C3(CC3)[S@](=N)(=O)C)C4=C5C=CNC5=NC=C4 [AZD6738]; settings: max 10 µM
In short: as §1

SG3199 = compound: CC1=CN2[C@@H](C1)C=NC3=CC(=C(C=C3C2=O)OC)OCCCCCOC4=C(C=C5C(=C4)N=C[C@@H]6CC(=CN6C5=O)C)OC [SG3199]; settings: max 0.001 µM
In short: as §1

AZD7648 = compound: Cc1cc2ncnn2cc1Nc1ncc2c(n1)n(C1CCOCC1)c(=O)n2C [AZD7648]; settings: max 10 µM
In short: as §1

AZD8186 = compound: C[C@@H](Nc1cc(F)cc(F)c1)c1cc(C(=O)N(C)C)cc2c(=O)cc(N3CCOCC3)oc12 [AZD8186]; settings: max 3 µM
In short: as §1

AZD2811 = compound: CCN(CCO)CCCOc1ccc2c(Nc3cc(CC(=O)Nc4cccc(F)c4)[nH]n3)ncnc2c1 [AZD2811]; settings: max 1 µM
In short: as §1

Selumetinib = compound: Cn1cnc2c(F)c(Nc3ccc(Br)cc3Cl)c(C(=O)NOCCO)cc21 [Selumetinib]; settings: max 10 µM
In short: as §1

Capivasertib = compound: C1CN(CCC1(C(=O)N[C@@H](CCO)C2=CC=C(C=C2)Cl)N)C3=NC=NC4=C3C=CN4 [Capivasertib]; settings: max 10 µM
In short: as §1

AZD0156 = compound: CN(C)CCCOc1ccc(-c2ccc3ncc4c(c3c2)n(C2CCOCC2)c(=O)n4C)cn1 [AZD0156]
In short: as §1

Palbociclib = compound: CC(=O)c1c(C)c2cnc(Nc3ccc(N4CCNCC4)cn3)nc2n(C2CCCC2)c1=O [Palbociclib]; settings: max 10 µM
In short: as §1

Lapatinib = compound: CS(=O)(=O)CCNCc1ccc(-c2ccc3ncnc(Nc4ccc(OCc5cccc(F)c5)c(Cl)c4)c3c2)o1 [Lapatinib]; settings: max 10 µM
In short: as §1

Venetoclax = compound: CC1(C)CCC(CN2CCN(c3ccc(C(=O)NS(=O)(=O)c4ccc(NCC5CCOCC5)c([N+](=O)[O-])c4)c(Oc4cnc5[nH]ccc5c4)c3)CC2)=C(c2ccc(Cl)cc2)C1 [Venetoclax]; settings: max 1 µM
In short: as §1

Gefitinib = compound: COc1cc2ncnc(Nc3ccc(F)c(Cl)c3)c2cc1OCCCN1CCOCC1 [Gefitinib]; settings: max 10 µM
In short: as §1

Crizotinib = compound: C[C@@H](Oc1cc(-c2cnn(C3CCNCC3)c2)cnc1N)c1c(Cl)ccc(F)c1Cl [Crizotinib]; settings: max 10 µM
In short: as §1

Cell Line	IC50, cell viability 72 h (Prexasertib) [nM]	IC50, cell viability 72 h (AZD1775; max 3 µM) [nM]	IC50, cell viability 72 h (AZD4320) [nM]	IC50, cell viability 72 h (SN-38) [nM]	IC50, cell viability 72 h (Taselisib) [nM]	IC50, cell viability 72 h (Trametinib) [nM]	IC50, cell viability 72 h (Doxorubicin) [nM]	IC50, cell viability 72 h (Alisertib) [nM]	IC50, cell viability 72 h (AZD1390) [nM]	IC50, cell viability 72 h (Savolitinib) [nM]	IC50, cell viability 72 h (AZD5991) [nM]	IC50, cell viability 72 h (AZD5153) [nM]	IC50, cell viability 72 h (Dasatinib) [nM]	IC50, cell viability 72 h (Olaparib) [nM]	IC50, cell viability 72 h (AZD6738) [nM]	IC50, cell viability 72 h (SG3199) [nM]	IC50, cell viability 72 h (AZD7648) [nM]	IC50, cell viability 72 h (AZD8186) [nM]	IC50, cell viability 72 h (AZD2811) [nM]	IC50, cell viability 72 h (Selumetinib) [nM]	IC50, cell viability 72 h (Capivasertib) [nM]	IC50, cell viability 72 h (AZD0156; max 3 µM) [nM]	IC50, cell viability 72 h (Palbociclib) [nM]	IC50, cell viability 72 h (Lapatinib) [nM]	IC50, cell viability 72 h (Venetoclax) [nM]	IC50, cell viability 72 h (Gefitinib) [nM]	IC50, cell viability 72 h (Crizotinib) [nM]	IC50, cell viability 72 h (AZD1775; max 1 µM) [nM]	IC50, cell viability 72 h (AZD0156; max 1 µM) [nM]
HPAC (Pancreatic Carcinoma)	81.6	1500	> 1000	> 300	2380	22.7	> 1000	3960	> 300	> 1000	> 1000	579	> 2000	> 10000	> 10000	> 1	> 10000	> 3000	> 1000	3160	> 10000	> 3000	> 10000	> 10000	> 1000	> 10000	6650		
IGR-1 (Melanoma)	617	> 3000	> 1000	> 300	> 10000	> 1000	> 1000	> 10000	> 300	> 1000	> 1000	> 1000	> 2000	> 10000	> 10000	> 1	> 10000	> 3000	> 1000	> 10000	> 10000	> 3000	> 10000	8830	> 1000	> 10000	6250		
J82 (Bladder Carcinoma)	> 1000	> 3000	> 1000	80.5	> 10000	> 1000	> 1000	> 10000	> 300	> 1000	> 1000	> 1000	> 2000	> 10000	> 10000	> 1	> 10000	> 3000	> 1000	> 10000	> 10000	> 3000	> 10000	> 10000	> 1000	> 10000	> 10000		
JiyoyeP-2003 (Burkitt's Lymphoma)	11.7	597	403	14.1	9670	> 1000	172	271	> 300	> 1000	814	49.2	1020	> 10000	1370	> 1	> 10000	> 3000	> 1000	> 10000	2320	> 3000	4700	> 10000	> 1000	> 10000	> 10000		
LU-99A (Non-Small Cell Lung Carcinoma)	77.1	> 3000	> 1000	39.7	3080	163	577	> 10000	> 300	> 1000	> 1000	> 1000	1510	> 10000	> 10000	> 1	> 10000	> 3000	> 1000	> 10000	> 10000	> 3000	> 10000	> 10000	> 1000	> 10000	> 10000		
NCI-H1694 (Small Cell Lung Carcinoma)	66.9		462	3.95	> 10000	> 1000	727	> 10000	> 300	> 1000	109	> 1000	> 2000	> 10000	9060	> 1	> 10000	> 3000	> 1000	> 10000	> 10000		> 10000	> 10000	> 1000	> 10000	> 10000	> 1000	> 1000
NCI-H1781 (Lung Adenocarcinoma)	709	839	> 1000	5.06	2110	> 1000	107	1770	> 300	> 1000	> 1000	> 1000	> 2000	> 10000	> 10000	> 1	> 10000	> 3000	583	> 10000	7070	> 3000	> 10000	8920	> 1000	5370	> 10000		
NCI-H1793 (Lung Adenocarcinoma)	938	> 3000	> 1000	> 300	> 10000	> 1000	> 1000	> 10000	> 300	> 1000	> 1000	> 1000	1100	> 10000	> 10000	> 1	> 10000	> 3000	> 1000	> 10000	> 10000	> 3000	> 10000	> 10000	> 1000	> 10000	> 10000		
NCI-H2369 (Mesothelioma)	> 1000	> 3000	> 1000	> 300	> 10000	> 1000	> 1000	> 10000	> 300	> 1000	> 1000	> 1000	> 2000	> 10000	> 10000	> 1	> 10000	> 3000	> 1000	> 10000	> 10000	> 3000	> 10000	> 10000	> 1000	> 10000	> 10000		
SNU-C5 (Colorectal Carcinoma)	21.8	507	> 1000	43.5	2010	563	> 1000	9360	> 300	> 1000	> 1000	578	> 2000	> 10000	4000	> 1	> 10000	> 3000	> 1000	> 10000	> 10000	> 3000	> 10000	> 10000	> 1000	> 10000	> 10000		
